experiment: in vitro; conditions: human, hela cells, % viability

| SMILES | viability at 28.5 h, 10 µM [%] |
| --- | --- |
| O=C(O)CCNc1cc2ccccc2cc1C(=O)O [CBK286640] | 80.7 |
| CCc1nc2ccc(C(=O)N3CCN(C(C)=O)CC3)cn2c1N(C)Cc1ccc(Cl)cc1 [CBK146718] | 105 |
| O=C(O)CN1C(=O)C2CCC(c3ccccc3)CC2C1=O (stereo not shown) [CBK286952] | 95.7 |
| COc1ccc(-c2cc3cccnc3n2CC(=O)N2CCCC2)cc1 [CBK285379] | 84.3 |
| O=S(=O)(NCC(c1ccccc1)n1cc(-c2ccccc2)nn1)c1ccccc1 (stereo not shown) [CBK268244] | 85.2 |
| Cc1cccc(-c2n[nH]c(=S)n2CC(=O)Nc2cccc(C#Cc3ccccn3)c2)c1 [CBK296633] | 92.8 |
| COc1ccc(-c2nn(CCC#N)cc2C(=O)N2CCCCC2)cc1 [CBK305834] | 92.4 |
| O=S(=O)(c1ccc(-c2cncc(-c3ccc(O)cc3)n2)cc1F)N1CCOCC1 [CBK126903] | 94.3 |
| Nc1ncc(-c2ccc(C(=O)N3CCOCC3)cc2)cc1C(=O)NCc1ccc(S(N)(=O)=O)cc1 [CBK158597] | 105 |
| Cc1c(NC(=O)CSc2nnc(-c3ccc4ccccc4n3)s2)c(=O)n(-c2ccccc2)n1C [CBK269341] | 92.7 |
| O=C(O)CCC(=O)NNC(=O)c1ccccc1[N+](=O)[O-] [CBK261079] | 95.8 |
| O=C(Nc1ccc(N2CCOCC2)c(Cl)c1)c1cccc(-n2cnnc2)c1 [CBK269853] | 95.6 |
| CSc1nc(C)c(CCC(=O)Nc2ccc(N3CC(C)OC(C)C3)nc2)c(C)n1 (stereo not shown) [CBK298266] | 87.4 |
| CCOc1ccc2nc(NC(=O)c3nc(SCc4ccccc4)ncc3Cl)sc2c1 [CBK269109] | 97.1 |
| NS(=O)(=O)c1ccc(CNC(=O)C(Sc2ccccc2)c2ccccc2)cc1 (stereo not shown) [CBK264355] | 91.5 |
| O=C1CC[C@@H](NCc2cccnc2)[C@H](c2cc(F)cc(F)c2)N1 [CBK283130] | 90.9 |
| Cc1cc(C(=O)N2CCC3(CCN(Cc4ccccc4)C3)C2)n[nH]1 (stereo not shown) [CBK137092T] | 93.4 |
| COc1ccc(CN2C(=O)CC(c3ccccc3)C2=O)cc1 (stereo not shown) [CBK002055] | 99.4 |
| CCOC(=O)Cc1csc(SCC(=O)N2CCc3ccccc32)n1 [CBK306190] | 88.8 |
| COc1nc2ccn(CC(O)CO)c(=O)c2cc1C#N (stereo not shown) [CBK307251] | 97.1 |
| CCn1cnnc1CNC(=O)N1CCCN(Cc2cccs2)CC1 [CBK305882] | 97.6 |

| SMILES | viability at 28.5 h, 10 µM [%] |
| --- | --- |
| Cn1nc(C2CCCN(C(=O)C3CC3)C2)c2cccnc21 (stereo not shown) [CBK282654] | 89.4 |
| CN(C)C(=O)c1ccc(-c2ccc3c(c2)COC(C2CCN(C(=O)CC(C)(C)c4ccccc4)CC2)O3)cc1 (stereo not shown) [CBK149765] | 107 |
| COc1cc([C@@H]2c3cc4c(cc3[C@H](O)[C@H]3COC(=O)[C@@H]23)OCO4)cc(OC)c1OC [CBK051004] | 36.3 |
| CS(=O)(=O)Nc1cc2cccnc2nc1-c1ccccc1 [CBK085689] | 104 |
| O=C(O)CC1S/C(=N/N=C/c2cn(Cc3ccccc3)c3ccccc23)NC1=O (stereo not shown) [CBK264466] | 102 |
| CC(C)c1ccc(-c2cncc(NCc3cccc(Cl)c3)n2)cc1 [CBK065347] | 106 |
| CC(C)OC(=O)N1CCC(C(=O)NC(c2ccccc2)c2ccc3ccccc3n2)CC1 (stereo not shown) [CBK059642] | 106 |
| O=S(=O)(Nc1ccc(N2CCNCC2)c2ccccc12)c1cc(Cl)sc1Cl [CBK003116C] | 93.9 |
| Cc1cc2nc(-c3ccccc3)[nH]c2cc1C [CBK086484] | 80.1 |
| Cc1noc(C)c1COc1ccc(C(=O)N[C@@H]2CN(C(=O)NC(C)C)CCC[C@H]2O)cc1 [CBK289069] | 93.1 |
| CC1CCN(Cc2ccc(-c3ccc(CC(=O)NCc4ccc(C#N)cc4)cn3)cc2)CC1 [CBK158409] | 93.8 |
| CCN(CC)C(=O)c1sccc1NS(=O)(=O)Cc1ccccc1[N+](=O)[O-] [CBK050396] | 97 |
| Cn1c(=O)c2c(ncn2CC(=O)Nc2ccc3ccccc3c2)n(C)c1=O [CBK133722] | 81.2 |
| COc1ccc2c(c1)CCC1(C)C2=C(C(=O)O)CC1O (stereo not shown) [CBK022814] | 103 |
| COC(=O)c1sccc1-c1ccc(C2C3=C(CCCC3=O)NC3=C2C(=O)CCC3)o1 [CBK005748] | 92.3 |
| O=C(c1ccccc1)c1ccc(NC(=O)c2ccccc2F)c(NC(=O)c2ccccc2F)c1 [CBK265183] | 93.2 |
| OC(COc1ccccc1F)CSc1nc(NC2CC2)c2ccccc2n1 (stereo not shown) [CBK297902] | 86.7 |
| CC(NC(=O)c1cn(C)c(=O)c2ccccc12)c1ccccn1 (stereo not shown) [CBK281886] | 92.1 |
| O=C(NCc1ccco1)c1ccccc1NS(=O)(=O)c1ccc(Br)s1 [CBK077969] | 79.9 |
| CCc1nn(CC(=O)NC2CCCC2)c(=O)c2cc3ccsc3n12 [CBK284134] | 98.4 |
| CCN1CCN(C(=O)c2ccccc2N(Cc2ccccc2)S(C)(=O)=O)CC1 [CBK267028] | 101 |

| SMILES | viability at 28.5 h, 10 µM [%] |
| --- | --- |
| CC(NCCN1CCOCC1)=C1C(=O)c2ccccc2C1=O [CBK262691] | 96.1 |
| CCc1nc2ccc(C(=O)N3CCNC(=O)C3)cn2c1N(C)C(=O)COc1ccccc1 [CBK145871] | 107 |
| O=C(CSc1nnc(-c2ccncc2)o1)c1ccccc1 [CBK070562] | 87.5 |
| CN1CCN(c2nc3ccccn3c(=O)c2/C=C2\SC(=S)N(CCc3ccccc3)C2=O)CC1 [CBK263131] | 110 |
| Cc1ccc(C(=O)NCc2cccnc2)c(N2CCN(C(=O)c3ccco3)CC2)n1 [CBK076444] | 83.9 |
| COc1ccc(OC)c(NC(=O)c2ccccc2C(=O)O)c1 [CBK287082] | 86.9 |
| CC(C)CC1C(C#N)=C(N)Oc2[nH]nc(-c3cccs3)c21 (stereo not shown) [CBK267449] | 104 |
| C[C@@H](Nc1cncc(-c2cccc3ccccc23)n1)c1ccccc1 [CBK065646] | 93.4 |
| CCCCC(c1cccnc1)N(C)C(=O)c1cnc(C)c(C)c1 (stereo not shown) [CBK307121] | 103 |
| O=C(CN1CCN(C(=O)C2COc3ccccc3O2)CC1)Nc1ccc2c(c1)OCCO2 (stereo not shown) [CBK074777] | 111 |
| COC(=O)Nc1ccc2c(c1)N(C(=O)CCN(C)C)c1ccccc1CC2 [CBK262972C] | 87.2 |
| CN1CCN(c2cc3ncccc3cc2F)CC1 [CBK066904] | 105 |
| CC(C)(C)OC(=O)N1CCC(C2OCc3cc(-c4ccc(S(C)(=O)=O)cn4)ccc3O2)CC1 (stereo not shown) [CBK173326] | 87.6 |
| CCC1(CC)OC(NC2CCCc3ccccc32)=NC1=O (stereo not shown) [CBK126555] | 99.1 |
| Cc1cc(NS(=O)(=O)c2ccc(N3CCOCC3)nc2)n(C)n1 [CBK067253] | 117 |
| Cc1ccc(-c2c[nH]c([C@@H]3COCCN3Cc3c[nH]c4ccccc34)n2)cc1 [CBK289308] | 106 |
| CCN1CCN(C(=O)c2c[nH]c3ccccc23)CC1 [CBK200245] | 103 |
| CC(=O)Nc1ccccc1/C=C/c1ccc2c(C)cc(C)c(O)c2n1 [CBK261937] | 106 |
| COc1cc([C@@]23CC[C@@H](NC(=O)Nc4cccc(Cl)c4)C[C@@H]2N(C)CC3)cc(OC)c1OC [CBK039212] | 93.7 |
